Source: patent US20230233550A1, “TREATMENT FOR THE INFLAMMATORY BOWEL DISEASE” (priority 2020, published 2023)

Assays:
DSS-induced colitis = assay: DSS-induced colitis; format: in vivo, male C57 mice
Method: The 8 to 10 week old male C57 mice (18-20 g) were used in the study. Animals were divided into two experimental groups: vehicle control and compound of formula (Ia). Same day animals were provided 2% dextran sulfate sodium (DSS) solution in water for 7 days. Animals were treated with vehicle or compound of formula (Ia) (15 mg/kg) by oral route daily for 10 days. Body weight was recorded daily for 10 days. Disease activity score was evaluated based on stool consistency and rectal bleeding (Kim JJ et al., 2012). Relative colon length was measured. Colon myeloperoxidase (MPO) activity was estimated (Kim JJ et al., 2012).

TNBS-induced colitis = assay: TNBS-induced colitis; format: in vivo, Female BalbC mice; conditions: 15 mg/kg orally, Balb/c mice
Method: Female BalbC mice (6-8 weeks old) were used in the study. Mice were sensitized by topical application of 1% trinitrobenzene sulfonic acid (TNBS) in acetone/olive oil solution (4:1). After 7 days of sensitization, mice were challenged with 2.5% TNBS solution by intra-rectal route administered 5 mL/kg of body weight under anesthesia. Mice were monitored for development of disease over 5 days. TNBS-treated mice were randomly divided into 2 groups: TNBS-control (TNBS) and TNBS + compound of formula (Ia) (15 mg/kg, orally). Treatment was started on one day before TNBS challenge (2.5 %) and continued up to day 5 after TNBS challenge (2.5%). Animals were monitored for body weight change daily for 5 days. Intestinal permeability was estimated by Evans blue method (Han ED et al., 2002).

In the case of O=C(O)CNC(=O)c1c(O)c2ccccc2n(OCC2CC2)c1=O [Compound of formula (Ia), Desidustat], the “reduction of colon MPO against vehicle control” value (DSS-induced colitis; 15 mg/kg oral daily for 10 days, colon myeloperoxidase activity) is reported as 74.9 ± 5.0%, the “decrease in disease activity score when compared with vehicle control” value (DSS-induced colitis; 15 mg/kg oral daily for 10 days, score based on stool consistency and rectal bleeding) is reported as 31.8 ± 9.8% and the “increase in body weight against vehicle control” value (DSS-induced colitis; 15 mg/kg oral daily, after ten days of treatment, 2% DSS for 7 days) is reported as 49.0 ± 12.9%. For the same molecule, the “weight gain when compared with vehicle control” value (TNBS-induced colitis; 5th day after TNBS challenge) was 17.4 ± 1.4% and the “decrease in intestinal permeability when compared against vehicle control” value (TNBS-induced colitis; Evans blue method) was 51.7 ± 4.4%.
